Measured values reported in patent publication EP0071535B1, “(4-(2 and/or 3-Thienylacetamido)-phenoxy)-hydroxyaminopropanes, their preparation, their therapeutic use and intermediates” (CARPIBEM (CENTRE D'ACTIVITE ET DE RECHERCHE PHARMACEUTIQUE …, priority 1981, dated 1983).

Experiments:
[1] = tested on: effets β1 (augmentation de la force contractile du myocarde) de l'isoprénaline; test: β-blocking activity: inhibition of the β1 effects of intravenous isoprenaline in anaesthetised dogs; assay type: in vivo, chiens; details: dog; for inhibition at 0.001 mg/kg / inhibition at 0.003 mg/kg / inhibition at 0.01 mg/kg / inhibition at 0.1 mg/kg: Canis lupus familiaris, iv, inhibition given with negative sign, read-out: % d'inhibition des effets β1^(+) de l'Isoprénaline; for inhibition at 0.001 mg/kg: 0,001 mg/kg I.V.; for inhibition at 0.003 mg/kg: 0,003 mg/kg I.V.; for inhibition at 0.01 mg/kg: 0,010 mg/kg I.V.; for inhibition at 0.1 mg/kg: 0,100 mg/kg I.V.
Method: (§1) Des chiens tout-venants mâles ou femelles sont anesthésiés au mébubarbital sodique (30 mg/kg I.V.) et ventilés artificiellement par une pompe Pesty RPP. Ils sont supplémentés en oxygène.
(§2) On mesure: • - la pression carotidienne systolique et diastolique • - la force contractile du myocarde.
(§3) Les signaux sont amplifiés et enregistrés sur Dynograph Beckman.
(§4) L'activité β bloquante adrénergique a été étudiée vis-à-vis des effets β1 (augmentation de la force contractile du myocarde) et des effets P2 (diminution de la pression artérielle disstolique) de l'isoprénaline administrée par voie intraveineuse.
(§5) On calcule le pourcentsge d'inhibition des effets β1 et des effets β2 de l'isoprénaline en fonction des doses (mg.kg I.V.) des différents exemples.
(§6) Les exemples sont injectés dans le veine saphène aux doses (exprimées en base) de: 0,0003 0,001 0,003 0,01 0,1 1,0 et 4,0 ou 8,0 mg.kg-1.

[2] = tested on: effets β2 (diminution de la pression artérielle diastolique) de l'isoprénaline; test: β-blocking activity: inhibition of the β2 effects of intravenous isoprenaline in anaesthetised dogs; assay type: in vivo, chiens; details: dog; for inhibition at 0.001 mg/kg / inhibition at 0.003 mg/kg / inhibition at 0.01 mg/kg / inhibition at 0.1 mg/kg: Canis lupus familiaris, iv, inhibition given with negative sign, read-out: % d'inhibition des effets β2^⊕ de l'Isoprénaline; for inhibition at 0.001 mg/kg: 0,001 mg/kg I.V.; for inhibition at 0.003 mg/kg: 0,003 mg/kg I.V.; for inhibition at 0.01 mg/kg: 0,010 mg/kg I.V.; for inhibition at 0.1 mg/kg: 0,100 mg/kg I.V.
Method: as §1, §2, §3, §4, §5, §6

[3] = tested on: rat génétiquement hypertendu: Rat OKAMOTO; test: Antihypertensive activity in spontaneously hypertensive rats (tail-cuff systolic pressure and heart rate after oral dosing); assay type: in vivo
Method: Des rats mâles âgés de 13 à 21 semaines présentant une hypertension spontanée génétiquement transmissible (souche OKAMOTO provenance IFFA CREDO) sont placés dans une enceinte thermostatée à 38°C. Les rats sont laissés en situation libre. La pression artérielle est mesurée par un sphygmomanomètre Narco Biosystem. Un manchon est placé à la base de la queue et un détecteur enregistre le pouls en aval du manchon. Celui-ci est gonflé jusqu'à suppression du pouls il est ensuite progressivement dégonflé. La pression mesurée à la reprise des battements cardiaques est la pression artérielle systolique. On calcule la fréquence cardiaque à partir de l'enregistrement du pouls artériel. Les produits à étudiar sont mis en suspension el administrés par voie orale sous un volume de 1 ml pour 100 g de poids corporel. Les mesures sont répétées à intervalles réguliers.
Les valeurs moyennes avant traitement pour les différents lots de rats sont pour la pression artérielle systolique de 190 à 200 mmHg et pour la fréquence cardiaque de 305 à 350 battements par minute.
Le tableau III ci-après donne la moyenne des variations de la pression systolique (mmHg) de la fréquence cardisque (battements/minute) et les écarts type à la moyenne obtenus 1 heure 3 heures et 5 heures après administration orale.

[4] = 0.001 mg.kg^-1 voie intraveineuse
[5] = 0.003 mg.kg^-1 voie intraveineuse
[6] = 0.01 mg.kg^-1 voie intraveineuse
[7] = 0.1 mg.kg^-1 voie intraveineuse
[8] = 1.0 mg.kg^-1 voie intraveineuse
[9] = 8.0 mg.kg^-1 voie intraveineuse
[10] = 128 mg.kg^-1 V.O, T+5 heures, mean
[11] = 4.0 mg.kg^-1 voie intraveineuse

For `CC(C)(C)NCC(O)COc1ccc(NC(=O)Cc2cccs2)cc1C#N` (stereo not drawn) [exemple 7, 1-[2-cyano 4-(2-thiénylacétamido)phénoxy] 3-terbutylamino 2-propanol], the “Pourcentages d'inhibition des effets β1 de l'Isoprénaline” value [1, 4] was 24%, the “Pourcentages d'inhibition des effets β1 de l'Isoprénaline” value [1, 5] was 70% and the “Pourcentages d'inhibition des effets β1 de l'Isoprénaline” value [1, 6] was 86%. For the same compound, the “Pourcentages d'inhibition des effets β1 de l'Isoprénaline” value [1, 7] was 100%, the “Pourcentages d'inhibition des effets β1 de l'Isoprénaline” value [1, 8] was 100% and the “Pourcentages d'inhibition des effets β1 de l'Isoprénaline” value [1, 9] was 100%. The inhibition at 0.001 mg/kg [1] was -24%, the inhibition at 0.003 mg/kg [1] was -70% and the inhibition at 0.01 mg/kg [1] was -86%. For the same compound, the inhibition at 0.1 mg/kg [1] was -100%, the “Pourcentages d'inhibition des effets β2 de l'Isoprénaline” value [2, 5] was 4% and the “Pourcentages d'inhibition des effets β2 de l'Isoprénaline” value [2, 6] was 16%. For the same compound, the “Pourcentages d'inhibition des effets β2 de l'Isoprénaline” value [2, 7] was 36%, the “Pourcentages d'inhibition des effets β2 de l'Isoprénaline” value [2, 8] was 88% and the “Pourcentages d'inhibition des effets β2 de l'Isoprénaline” value [2, 9] was 100%. The inhibition at 0.001 mg/kg [2] was 0%, the inhibition at 0.003 mg/kg [2] was -4% and the inhibition at 0.01 mg/kg [2] was -16%. For the same compound, the inhibition at 0.1 mg/kg [2] was -36%, the “Fréquence cardiaque Δ (battements/min) T+1 heure m (sm)” value ([3]; 128 mg.kg^-1 V.O) was “+36 (4) battements/min” and the “Pression systolique Δ (mmHg) T+1 heure m (sm)” value ([3]; 128 mg.kg^-1 V.O) was -27 (5) mmHg. For the same compound, the “Pression systolique Δ (mmHg) T+1 heure m” value ([3]; 128 mg.kg^-1 V.O, mean) was -27 mmHg, the “Fréquence cardiaque Δ (battements/min) T+3 heures m (sm)” value ([3]; 128 mg.kg^-1 V.O) was “+29 (4) battements/min” and the “Pression systolique Δ (mmHg) T+3 heures m (sm)” value ([3]; 128 mg.kg^-1 V.O) was -27 (5) mmHg. For the same compound, the “Fréquence cardiaque Δ (battements/minute) T + 3 heures m” value ([3]; 128 mg.kg^-1 V.O, mean) was “+29 battements/minute”, the “Pression systolique Δ (mmHg) T+3 heures m” value ([3]; 128 mg.kg^-1 V.O, mean) was -27 mmHg and the “Fréquence cardiaque Δ (battements/min) T+5 heures m (sm)” value ([3]; 128 mg.kg^-1 V.O, T+5 heures) was “+25 (9) battements/min”. The “Pression systolique Δ (mmHg) T+5 heures m (sm)” value ([3]; 128 mg.kg^-1 V.O, T+5 heures) was -31 (5) mmHg and the “Pression systolique Δ (mmHg) T+5 heures m” value [3, 10] was -31 mmHg.
With `CC(C)NCC(O)COc1ccc(NC(=O)Cc2cccs2)cc1C#N` (stereo not drawn) [exemple 8, 1-[2-cyano 4-(2-thiénylacétamido)phénoxy] 3-isopropylamino 2-propanol] the “Pourcentages d'inhibition des effets β1 de l'Isoprénaline” value [1, 4] was 5%, the “Pourcentages d'inhibition des effets β1 de l'Isoprénaline” value [1, 5] was 12% and the “Pourcentages d'inhibition des effets β1 de l'Isoprénaline” value [1, 6] was 38%. For the same compound, the “Pourcentages d'inhibition des effets β1 de l'Isoprénaline” value [1, 7] was 64%, the “Pourcentages d'inhibition des effets β1 de l'Isoprénaline” value [1, 8] was 86% and the “Pourcentages d'inhibition des effets β1 de l'Isoprénaline” value [1, 11] was 100%. It also gave an inhibition at 0.001 mg/kg [1] of -5%, an inhibition at 0.003 mg/kg [1] of -12% and an inhibition at 0.01 mg/kg [1] of -38%. For the same compound, the inhibition at 0.1 mg/kg [1] was -64%, the “Pourcentages d'inhibition des effets β2 de l'Isoprénaline” value [2, 8] was 16% and the “Pourcentages d'inhibition des effets β2 de l'Isoprénaline” value [2, 11] was 100%. It also gave an inhibition at 0.001 mg/kg [2] of 0%, an inhibition at 0.003 mg/kg [2] of 0% and an inhibition at 0.01 mg/kg [2] of 0%. The inhibition at 0.1 mg/kg [2] was 0%, the “Fréquence cardiaque Δ (battements/min) T+1 heure m (sm)” value ([3]; 128 mg.kg^-1 V.O) was “+31 (11) battements/min” and the “Pression systolique Δ (mmHg) T+1 heure m (sm)” value ([3]; 128 mg.kg^-1 V.O) was -39 (8) mmHg. The “Pression systolique Δ (mmHg) T+1 heure m” value ([3]; 128 mg.kg^-1 V.O, mean) was -39 mmHg, the “Fréquence cardiaque Δ (battements/min) T+3 heures m (sm)” value ([3]; 128 mg.kg^-1 V.O) was “+36 (7) battements/min” and the “Pression systolique Δ (mmHg) T+3 heures m (sm)” value ([3]; 128 mg.kg^-1 V.O) was -31 (9) mmHg. The “Fréquence cardiaque Δ (battements/minute) T + 3 heures m” value ([3]; 128 mg.kg^-1 V.O, mean) was “+36 battements/minute”, the “Pression systolique Δ (mmHg) T+3 heures m” value ([3]; 128 mg.kg^-1 V.O, mean) was -31 mmHg and the “Fréquence cardiaque Δ (battements/min) T+5 heures m (sm)” value ([3]; 128 mg.kg^-1 V.O, T+5 heures) was “+12 (13) battements/min”. The “Pression systolique Δ (mmHg) T+5 heures m (sm)” value ([3]; 128 mg.kg^-1 V.O, T+5 heures) was -25 (5) mmHg, the “Fréquence cardiaque Δ (battements/minute) T + 5 heures m” value [3, 10] was “+12 battements/minute” and the “Pression systolique Δ (mmHg) T+5 heures m” value [3, 10] was -25 mmHg.
`CC(C)(C)NCC(O)COc1ccc(NC(=O)Cc2ccsc2)cc1C#N` (stereo not drawn) [exemple 9, 1-[2-cyano 4-(3-thiénylacétamido)phénoxy] 3-terbutylamino 2-propanol] was tested, and the “Pourcentages d'inhibition des effets β1 de l'Isoprénaline” value [1, 4] was 22%, the “Pourcentages d'inhibition des effets β1 de l'Isoprénaline” value [1, 5] was 74% and the “Pourcentages d'inhibition des effets β1 de l'Isoprénaline” value [1, 6] was 91%. For the same compound, the “Pourcentages d'inhibition des effets β1 de l'Isoprénaline” value [1, 7] was 100%, the “Pourcentages d'inhibition des effets β1 de l'Isoprénaline” value [1, 8] was 100% and the “Pourcentages d'inhibition des effets β1 de l'Isoprénaline” value [1, 9] was 100%. The inhibition at 0.001 mg/kg [1] was -22%, the inhibition at 0.003 mg/kg [1] was -74% and the inhibition at 0.01 mg/kg [1] was -91%. The inhibition at 0.1 mg/kg [1] was -100%, the “Pourcentages d'inhibition des effets β2 de l'Isoprénaline” value [2, 6] was 8% and the “Pourcentages d'inhibition des effets β2 de l'Isoprénaline” value [2, 7] was 42%. For the same compound, the “Pourcentages d'inhibition des effets β2 de l'Isoprénaline” value [2, 8] was 100%, the “Pourcentages d'inhibition des effets β2 de l'Isoprénaline” value [2, 9] was 100% and the inhibition at 0.001 mg/kg [2] was 0%. It also gave an inhibition at 0.003 mg/kg [2] of 0%, an inhibition at 0.01 mg/kg [2] of -8% and an inhibition at 0.1 mg/kg [2] of -42%. For the same compound, the “Fréquence cardiaque Δ (battements/min) T+1 heure m (sm)” value ([3]; 64 mg.kg^-1 V.O) was “+27 (11) battements/min”, the “Pression systolique Δ (mmHg) T+1 heure m (sm)” value ([3]; 64 mg.kg^-1 V.O) was -16 (4) mmHg and the “Fréquence cardiaque Δ (battements/min) T+3 heures m (sm)” value ([3]; 64 mg.kg^-1 V.O) was “+13 (13) battements/min”. For the same compound, the “Pression systolique Δ (mmHg) T+3 heures m (sm)” value ([3]; 64 mg.kg^-1 V.O) was -25 (8) mmHg, the “Fréquence cardiaque Δ (battements/min) T+5 heures m (sm)” value ([3]; 64 mg.kg^-1 V.O, T+5 heures) was “+13 (13) battements/min” and the “Pression systolique Δ (mmHg) T+5 heures m (sm)” value ([3]; 64 mg.kg^-1 V.O, T+5 heures) was -38 (6) mmHg.
`CC(C)NCC(O)COc1ccc(NC(=O)Cc2ccsc2)cc1Cl` (stereo not drawn) [exemple 46, 1-[2-chloro 4-(3-thiénylacétamido)phénoxy] 3-isopro-pylamino 2-propanol] showed an inhibition at 0.001 mg/kg [1] of -17%, an inhibition at 0.003 mg/kg [1] of -44% and an inhibition at 0.01 mg/kg [1] of -84%. For the same compound, the inhibition at 0.1 mg/kg [1] was -100%, the inhibition at 0.001 mg/kg [2] was -5% and the inhibition at 0.003 mg/kg [2] was -5%. It also gave an inhibition at 0.01 mg/kg [2] of -20% and an inhibition at 0.1 mg/kg [2] of -19%.
Work on `CC(C)(C)NCC(O)COc1ccc(NC(=O)Cc2cccs2)cc1F` (stereo not drawn) [exemple 47, 1-[2-fluoro 4-(2-thiénylscétamido)phénoxy] 3-terbutylamino 2-propanol] yielded an inhibition at 0.001 mg/kg [1] of -12%, an inhibition at 0.003 mg/kg [1] of -33% and an inhibition at 0.01 mg/kg [1] of -66%. It also gave an inhibition at 0.1 mg/kg [1] of -96%, an inhibition at 0.001 mg/kg [2] of -24% and an inhibition at 0.003 mg/kg [2] of -4%. For the same compound, the inhibition at 0.01 mg/kg [2] was 0% and the inhibition at 0.1 mg/kg [2] was -12%.
